Legend:
[1] = system: conscious telemetered dogs; test: Dog telemetry study (cardiovascular function); assay type: in vivo
Source text: The purpose of this study was to assess the potential effect of compound A on the cardiovascular function (blood pressure, heart rate and ECG) in conscious telemetered dogs over a 24-hour period post dosing.
Conscious freely moving dogs (Marshall Farms, n=4, 2 males and 2 females, 6.9 to 10.8 kg body weight and 44 to 64-months) received an oral or intravenous dose of the negative control article (i.e., aqueous solution of 0.5% (w/w) hydroxyethylcellulose/0.6% (w/w) polysorbate 80 for oral route, or aqueous solution of 20% Captisol, pH 7.5 to 8) followed by compound A at 30 and 100 mg/kg for oral route as suspensions in negative control article, or 10 and 30 mg/kg for i.v. route as solution in negative control article, according to a rising dose study design with at least a 4-day washout period between each administration (5 mL/kg for oral route or for 30-min infusion into the jugular vein). Arterial blood pressure and lead II ECG signals (Transmitters from Data Science, USA) were continuously recorded on each treatment day from approximately 2 hours before dosing up to 24 hours after dosing. The following parameters were analyzed at several time points: arterial blood pressure (systolic, diastolic and mean), heart rate, electrocardiographic parameters of RR, PQ (=PR), QT interval durations and QRS complex duration as well as body temperature. […]

[2] = system: isolated rabbit Purkinje fibers; test: Rabbit Purkinje fibers assay
Experimental: The effects of compound A on resting membrane potential and action potential parameters recorded from isolated rabbit Purkinje fibers (male, New Zealand rabbits; 1.3 to 1.5 kg; 9-12 weeks of age) were evaluated through a microelectrode technique. […] The fibers were superfused with an oxygenated physiological solution containing (in mmol/L): NaCl, 120; KCl, 4; MgCl2, 1; NaH2PO4, 1.8; NaHCO3, 25; glucose, 11; CaCl2, 1.8; pH=7.4, at 36±1° C. Compound A was first dissolved into DMSO to obtain a 12 mmol/L stock solution. This solution was further diluted into DMSO and then added into the physiological solution to obtain the appropriate nominal concentrations of 0.3, 1, 3, 10 and 30 μmol/L (i.e., 0.1, 0.5, 1.4, 4.5 and 13.6 μg/mL of active ingredient, respectively). The final concentration of DMSO in the test formulation was kept constant at 0.25% (v/v) in the physiological solution. Purkinje fibers (n=4) were first superfused by the physiological solution. After a 30-minute control period, test compound was evaluated at increasing concentrations sequentially applied, every 30 minutes. For each tested concentration, the fibers were stimulated at the basal rate of 1 pulse per second (1 Hz). […]

CD1 mice = test: Mouse model of rhabdomyolysis-induced renal injury (glycerol); assay type: in vivo; details: 10 mg/kg p.o. 1 hour before glycerol; 24 h
Experimental: Swiss (CD1) male mice (n=5-15, 13-14 weeks old) (Charles River Laboratory, France) received oral administration of compound A at 0.3, 1, 3 and 10 mg/kg or vehicle article (methylcellulose 0.6%—tween 80 0.5% in water) within a volume of administration of 10 mL/kg, one hour before glycerol injection. Intramuscular injection of glycerol (50% in PBS v/v) or vehicle article (PBS) was performed into hindlimbs (2 injections per leg, gastrocnemius and rectus femoris) at 8 mL/kg under pentobarbital (33 mg/kg) and ketamine (40 mg/kg) anaesthesia. Twenty-four hours later, blood was collected, centrifuged (3000 g, 10 min) and heparinised plasma frozen for creatinine evaluation using a biochemical analyser (P400, Horiba, France). Results are expressed as mean+/−s.e.m.

RPTEC = test: Tunicamycin-induced apoptosis assay in RPTEC (Caspase-Glo 3/7); assay type: cell-based; details: Homo sapiens, read-out: EC50 inhibition of tunicamycin-induced apoptosis (caspase 3/7 activity)
Experimental: The effect of compound A on tunicamycin (TN)-induced apoptosis in RPTEC was measured by the mean of the Caspase-Glo 3/7 assay kit (Promega). Briefly, RPTEC cells (Lonza) were seeded in 96 multiwell white plates at 30×10^3 cells per well in REGM (REBM medium plus 0.5% FCS plus Single quots, Lonza) and allowed to adhere for 24 h. After 24 h, complete medium was replaced by serum and supplements free medium (56 μL/well). Cells were pre-treated for 30 min by compound A (final concentrations 0.3-30 μM, 7 μL) followed by addition of tunicamycin (TN, final concentration, 0.1 μg/mL, 7 μL). After 24 hours at 37° C. 5% CO2, 70 μL of Caspase-Glo reagent were added and culture plate placed under shaking for 1 hour. Luminescence was recorded by the mean of the Envision reader (Perkin Elmer). Results are expressed as percent inhibition of TN-induced apoptosis.

[3] = Pharmacokinetics in beagle dog; details: in vivo, po, 3 mg/kg p.o.

Question: With `Cc1cc(-c2nc3cnc(Oc4cccc(Cl)c4)nc3o2)cc(C)c1OCC(=O)O` [Compound A, {4-[5-(3-chloro-phenoxy)-oxazolo[5,4-d]pyrimidin-2-yl]-2,6-dimethyl-phenoxy}-acetic acid] as the compound, how does the “Effect on heart rate, atrioventricular block or any other ECG parameters” value ([1]; 30 or 100 mg/kg p.o. and 10 or 30 mg/kg i.v. (infusion over 30 min)) read?
Answer: The value was “No effect”.

Question: And the “Change in blood pressure” value ([1]; at both doses)?
Answer: The value was “no significant change”.

Question: And the “Effect on action potential” value ([2]; 26 μM)?
Answer: The value was “shortening of the action potential”.

Question: And the “Effect on resting membrane potential and action potential parameters” value ([2]; 0.3 to 10 μM)?
Answer: The value was “no significant effect”.

Question: What about the “Prevention of deterioration of renal function (plasma creatinine)” value (CD1 mice) of the same compound?
Answer: Its value is ~85%.

Question: And the EC50 (RPTEC)?
Answer: The EC50 was 3 to 10 µM.

Question: What about the AUC [3] of the same compound?
Answer: The AUC was 41300 ng·h/mL.

Question: And the Cmax [3]?
Answer: Its Cmax is 2910 ng/mL.

Source: US9782411B2, “{4-[5-(3-chloro-phenoxy)-oxazolo[5,4-d]pyrimidin-2-yl]-2,6-dimethyl-phenoxy}-acetic acid for use in the prevention or treatment of acute kidney injury” (Sanofi, priority 2013, dated 2017)
